Data taken from US10265342B2, “Sustained-release composition, method for fabricating, and use thereof” (NATIONAL TSING HUA UNIVERSITY, priority 2017, dated 2019).

How the values were obtained:
[1] = system: hindlimb ischemia (ligation of femoral artery); assay: mouse hindlimb ischemia model; format: in vivo, BALB/c mice; details: intramuscular injection into quadriceps muscle
Method: As mentioned above, the sustained-release composition can be applied for promoting angiogenesis in ischemic tissues. Thus, the effect of such the use will be further evaluated through a mouse hindlimb ischemia model and utilizes the sustained-release composition of the 1st embodiment of the present disclosure. In the present disclosure, all animal experimentation processes are performed according to an animal care and use guideline promulgated by Council of Agriculture, Executive Yuan, R.O.C. (Taiwan). In particular, BALB/c mice are served as a platform for developing the animal model. In the beginning, for each of the mice, 2 L/min of oxygen and 4% inhaled isoflurane are provided into an anesthesia box to introduce a general anesthesia in the mouse under room temperature, and the mouse is intubated and supplied by 3% isoflurane continuously. After a medial thigh area of the mouse is cut by a scalpel, the mouse is subjected by ligation of upper end and lower end of femoral artery to simulate hindlimb ischemia.
Subsequently, an intramuscular injection is performed into the quadriceps muscle adjacent to the proximal ligation site. The abovementioned mice can be divided into four groups according to the treatment. In details, the mice of Group 1 are only injected with physiological saline. […] The mice of Group 4 are injected with the sustained-release composition of the 1st embodiment. […]

[2] = cited from earlier work

## C=CCSSSCC=C [free diallyl trisulfide, diallyl trisulfide]
[1]
  hindlimb kept or lost after fourteen days: lose its hindlimb
[1]; fourteen days
  muscle atrophy of the hindlimb: slighter than that of the mice of Group 1 and Group 3
[2]
  half-life in aqueous solution: around 15 minutes
